Data: US20260076973A1 (priority 2023, published 2026)
Where a name gives a salt, the structure may show the parent alone. Read-outs that look alike come from different tables or passages of the source. Where a SMILES comes first, the peptide text is derived from it.

Assays:
SARS-CoV-2 (WA1) = assay: microbe, parasite or virus in culture; format: cell-based; details: for antiviral effect of positive controls in the CPE assay: SARS-CoV-2 CPE assay
VeroE6 cells = assay: Cytotoxicity counter screen in Vero E6 cells (Cell Titer-Glo); details: read-out: Cytotoxicity CC50; reference compounds, Vero E6 cells, 72 hours
[1] = as above; details: African green monkey
229E virus = assay: 229E coronavirus infection assay in Huh7.5 cells; format: cell-based; details: read-out: 229E IC50
OC43 virus = assay: OC43 coronavirus infection assay in Huh7.5 cells; format: cell-based; details: read-out: OC43 IC50
[2] = tested on: SARS CoV-2 nanoluciferase reporter virus (NLRV); assay: microbe, parasite or virus in culture; format: cell-based; details: Severe acute respiratory syndrome coronavirus 2, A549-ACE2, 72 h
[3] = Severe acute respiratory syndrome coronavirus 2, Vero C1008, 72 h, reference compounds, SARS-CoV-2 (WA1) CPE assay, Round 2, Vero E6, 72 hours, read-out: Antiviral IC50
[4] = Severe acute respiratory syndrome coronavirus 2, Vero C1008
[5] = Betacoronavirus 1, OC43, Huh7.5, 72 h
[6] = Severe acute respiratory syndrome coronavirus 2, Vero C1008, VIRADEM compounds, SARS-CoV-2(WA1) CPE assay, Round 2, concentration range 1000-0.05 nM, Vero E6, read-out: IC50
[7] = VIRADEM compounds, SARS-CoV-2(WA1) CPE assay, Round 2, concentration range 1000-0.05 nM, Vero E6, read-out: IC50

What does the source list for `CC(C)C[C@H](NC(=O)OCc1ccccc1)C(=O)N[C@@H](CC(C)C)C(=O)N[C@@H](Cc1ccc(O)cc1)C(=O)CF` [Calpain Inhibitor IV, reference compound] (HELM PEPTIDE1{[O=C(OCc1ccccc1)[*:2]].L.L.Y.[FC[*:1]]}$$$$V2.0)?
antiviral effect of positive controls in the CPE assay (SARS-CoV-2 (WA1)): dose dependent antiviral effect; IC50 (SARS-CoV-2 (WA1); reference compounds, SARS-CoV-2 (WA1) CPE assay, Round 2, Vero E6, 72 hours, read-out: Antiviral IC50): 240 nM; CC50 (VeroE6 cells): > 7170 nM

For `CCN(CC)CCCC(C)Nc1ccnc2cc(Cl)ccc12` (centres unmarked) [Chloroquine, reference compound], which “antiviral effect of positive controls in the CPE assay” value (SARS-CoV-2 (WA1)) is on record?
Its value is “dose dependent antiviral effect”.

What about the IC50 (SARS-CoV-2 (WA1); [3]) of the same compound?
The IC50 was 4030 nM.

What about the CC50 at 72 h [1] of the same compound?
The CC50 at 72 h was greater than 30000 nM.

Which IC50 (SARS-CoV-2 (WA1); [3]) does the source give for `CCN(CCO)CCCC(C)Nc1ccnc2cc(Cl)ccc12` (centres unmarked) [Hydroxychloroquine, reference compound] here?
Its IC50 is 2100 nM.

What about the CC50 at 72 h ([1]; Vero E6 cells) of the same compound?
The CC50 at 72 h was greater than 30000 nM.

For `CCC(CC)COC(=O)[C@H](C)N[P@](=O)(OC[C@H]1O[C@@](C#N)(c2ccc3c(N)ncnn23)[C@H](O)[C@@H]1O)Oc1ccccc1` [Remdesivir, reference compound], which IC50 (SARS-CoV-2 (WA1); [4]) is on record?
The IC50 was 7000 to 10000 nM.

What about the IC50 (SARS-CoV-2 (WA1); Severe acute respiratory syndrome coronavirus 2, Vero C1008, 72 h, read-out: Antiviral IC50) of the same compound?
Its IC50 is 10800 nM.

What about the “Selectivity Index (CC50/IC50)” value (SARS-CoV-2 (WA1); reference compounds, Round 2) of the same compound?
The value was greater than 2.8.

What about the CC50 at 72 h [1] of the same compound?
Its CC50 at 72 h is greater than 30000 nM.

And the IC50 (229E virus; Huh7.5, 48 h)?
The IC50 was 13 nM.

And the IC50 (OC43 virus; [5])?
Its IC50 is 9.7 nM.

With `Cc1ccc(Nc2nc(Nc3ccc(C)c(C)c3)nc(N3CCOCC3)n2)cc1` [VIRADEM-11141] as the compound, how does the IC50 (SARS-CoV-2 (WA1); [4]) read?
The IC50 was 120 nM.

And the IC50 (229E virus; Huh7.5, 48 h)?
Its IC50 is 260 nM.

And the IC50 [2]?
Its IC50 is 97 nM.

What about the IC90 [2] of the same compound?
Its IC90 is 118 nM.

And the IC50 (OC43 virus; [5])?
Its IC50 is 1650 nM.

For `CC(=O)Nc1ccc(Nc2nc(Nc3ccc(Cl)cc3)nc(N3CCOCC3)n2)cc1` [VIRADEM-11847, N-{4-[4-(4-Chlorophenylamino)-6-morpholin-4-yl-[1,3,5]triazin-2-ylamino]-phenyl}-acetamide], which IC50 (SARS-CoV-2 (WA1); [6]) is on record?
The IC50 was 20 nM.

And the IC50 (229E virus; 48 h, Huh7.5 cells, fixed 2 days after infection)?
The IC50 was 138 nM.

And the IC50 [2]?
The IC50 was 32 nM.

What about the IC90 [2] of the same compound?
Its IC90 is 41 nM.

And the IC50 (OC43 virus; Betacoronavirus 1, OC43, 72 h, Huh7.5 cells, fixed 3 days after infection)?
The IC50 was 992 nM.

What does the source list for `CC(=O)Nc1ccc(Nc2nc(Nc3ccc(C)c(C)c3)nc(N3CCOCC3)n2)cc1` [VIRADEM-11918, N-{4-[4-(3,4-Dimethylphenylamino)-6-morpholin-4-yl-[1,3,5]triazin-2-ylamino]phenyl}-acetamide]?
IC50 [2]: 19 nM; IC90 [2]: 29 nM

For `COc1ccc(Nc2nc(Nc3ccc(C(N)=O)cc3)nc(N3CCOCC3)n2)cc1` [VIRADEM-15356, 4-[4-(4-Methoxyphenylamino)-6-morpholin-4-yl-[1,3,5]triazin-2-ylamino]-benzamide], which IC50 (SARS-CoV-2 (WA1); [6]) is on record?
The IC50 was 120 nM.

Which IC50 (SARS-CoV-2 (WA1); [6]) does the source give for `NC(=O)C1CCN(c2nc(N3CCOCC3)nc(N3CCOCC3)n2)CC1` [VIRADEM-15361, 1-(4,6-Dimorpholin-4-yl-[1,3,5]triazin-2-yl)-piperidine-4-carboxylic acid amide] here?
The IC50 was greater than 1000 nM.

With `C1CCCN(c2nc(N3CCOCC3)nc(N3CCOCC3)n2)CC1` [VIRADEM-16523, 1-(4,6-Dimorpholin-4-yl-[1,3,5]triazin-2-yl)-azepane] as the compound, how does the IC50 (SARS-CoV-2 (WA1); [6]) read?
The IC50 was greater than 1000 nM.

For `COc1ccc(Nc2nc(Nc3cccc(C)c3)nc(N3CCOCC3)n2)cc1` [hydrochloride], which IC50 (SARS-CoV-2 (WA1); [4]) is on record?
The IC50 was 230 nM.

For “N-(3-Chlorophenyl)-N^1-phenyl)-6-pyrrolidin-1-yl-[1,3,5]triazine-2,4-diamine hydrochloride [VIRADEM-12312]”, which IC50 (SARS-CoV-2 (WA1); [7]) is on record?
The IC50 was greater than 1000 nM.

Which IC50 (SARS-CoV-2 (WA1); [7]) does the source give for “N-(3-Fluorophenyl)-6-pyrrolidin-1-yl-1,3,5]triazine-2,4-diamine hydrochloride [VIRADEM-12180]” here?
The IC50 was greater than 1000 nM.
